In the supplement of paper PMC10307832:

Experiments:
Test in all cases: relative viability (nuclei count vs DMSO), 5 days (fraction); higher = more cells survive
201T = tested on: 201T
Summary of the method: (§1)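 Dosing by pin tool came one day after lung cancer cell lines were seeded in 1536-well plates, using either one drug or a fixed anchor-drug dose plus five library-drug doses (not always all listed) in √10 steps. After 5 days, nuclei were counted on 4× images. Relative viability is treated-well nuclei count divided by vehicle-well nuclei count, and values are medians of duplicate plates.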

HCC-15 = tested on: HCC-15
Summary of the method: as §1

COR-L 105 = tested on: COR-L 105
Summary of the method: as §1

LC-2-ad = tested on: LC-2-ad
Summary of the method: as §1

LU99A = tested on: LU99A
Summary of the method: as §1

NCI-H596 = tested on: NCI-H596
Summary of the method: as §1

COR-L23 = tested on: COR-L23
Summary of the method: as §1

HCC-366 = tested on: HCC-366
Summary of the method: as §1

NCI-H3122 = tested on: NCI-H3122
Summary of the method: as §1

HCC-78 = tested on: HCC-78
Summary of the method: as §1

NCI-H1993 = tested on: NCI-H1993
Summary of the method: as §1

EKVX = tested on: EKVX
Summary of the method: as §1

NCI-H1944 = tested on: NCI-H1944
Summary of the method: as §1

HCC-827 = tested on: HCC-827
Summary of the method: as §1

NCI-H1650 = tested on: NCI-H1650
Summary of the method: as §1

HARA = tested on: HARA
Summary of the method: as §1

SK-LU-1 = tested on: SK-LU-1
Summary of the method: as §1

BEN = tested on: BEN
Summary of the method: as §1

LXF-289 = tested on: LXF-289
Summary of the method: as §1

NCI-H1975 = tested on: NCI-H1975
Summary of the method: as §1

NCI-H1734 = tested on: NCI-H1734
Summary of the method: as §1

NCI-H1755 = tested on: NCI-H1755
Summary of the method: as §1

RERF-LC-KJ = tested on: RERF-LC-KJ
Summary of the method: as §1

O=C(O)CCCCC(CCSCc1ccccc1)SCc1ccccc1 (stereo not drawn) [CPI-613] + O=C(c1cc(Cc2n[nH]c(=O)c3ccccc23)ccc1F)N1CCN(C(=O)C2CC2)CC1 [Olaparib] (partner 8 µM)
relative viability (201T; first compound 5 µM): 0.849 | relative viability (201T; first compound 15.81 µM): 0.788 | relative viability (201T; first compound 50 µM): 0.776 | relative viability (201T; first compound 158.11 µM): 0.594 | relative viability (201T; first compound 500 µM): 0.633 | relative viability (HCC-15; first compound 5 µM): 0.743 | relative viability (HCC-15; first compound 15.81 µM): 0.712 | relative viability (HCC-15; first compound 50 µM): 0.612 | relative viability (HCC-15; first compound 158.11 µM): 0.178 | relative viability (HCC-15; first compound 500 µM): 0.0853 | relative viability (COR-L 105; first compound 5 µM): 0.78 | relative viability (COR-L 105; first compound 15.81 µM): 0.685 | relative viability (COR-L 105; first compound 50 µM): 0.739 | relative viability (COR-L 105; first compound 158.11 µM): 0.268 | relative viability (COR-L 105; first compound 500 µM): 0.28 | relative viability (LC-2-ad; first compound 5 µM): 0.629 | relative viability (LC-2-ad; first compound 15.81 µM): 0.634 | relative viability (LC-2-ad; first compound 50 µM): 0.653 | relative viability (LC-2-ad; first compound 158.11 µM): 0.214 | relative viability (LC-2-ad; first compound 500 µM): 0.0817 | relative viability (LU99A; first compound 5 µM): 0.26 | relative viability (LU99A; first compound 15.81 µM): 0.237 | relative viability (LU99A; first compound 50 µM): 0.242 | relative viability (LU99A; first compound 158.11 µM): 0.127 | relative viability (LU99A; first compound 500 µM): 0.161 | relative viability (NCI-H596; first compound 5 µM): 0.723 | relative viability (NCI-H596; first compound 15.81 µM): 0.723 | relative viability (NCI-H596; first compound 50 µM): 0.633 | relative viability (NCI-H596; first compound 158.11 µM): 0.323 | relative viability (NCI-H596; first compound 500 µM): 0.0561 | relative viability (COR-L23; first compound 5 µM): 0.369 | relative viability (COR-L23; first compound 15.81 µM): 0.299 | relative viability (COR-L23; first compound 50 µM): 0.389 | relative viability (COR-L23; first compound 158.11 µM): 0.175 | relative viability (COR-L23; first compound 500 µM): 0.0294 | relative viability (HCC-366; first compound 5 µM): 0.392 | relative viability (HCC-366; first compound 15.81 µM): 0.37 | relative viability (HCC-366; first compound 50 µM): 0.41 | relative viability (HCC-366; first compound 158.11 µM): 0.0554 | relative viability (HCC-366; first compound 500 µM): 0.0079 | relative viability (NCI-H3122; first compound 5 µM): 0.672 | relative viability (NCI-H3122; first compound 15.81 µM): 0.589 | relative viability (NCI-H3122; first compound 50 µM): 0.574 | relative viability (NCI-H3122; first compound 158.11 µM): 0.442 | relative viability (NCI-H3122; first compound 500 µM): 0.609 | relative viability (HCC-78; first compound 15.81 µM): 0.792 | relative viability (HCC-78; first compound 50 µM): 0.857 | relative viability (HCC-78; first compound 158.11 µM): 0.842 | relative viability (HCC-78; first compound 500 µM): 0.711 | relative viability (NCI-H1993; first compound 5 µM): 1.15 | relative viability (NCI-H1993; first compound 15.81 µM): 0.918 | relative viability (NCI-H1993; first compound 50 µM): 0.908 | relative viability (NCI-H1993; first compound 158.11 µM): 0.6 | relative viability (NCI-H1993; first compound 500 µM): 0.421 | relative viability (EKVX; first compound 5 µM): 0.756 | relative viability (EKVX; first compound 15.81 µM): 0.862 | relative viability (EKVX; first compound 50 µM): 0.856 | relative viability (EKVX; first compound 500 µM): 0.802 | relative viability (NCI-H1944; first compound 5 µM): 0.404 | relative viability (NCI-H1944; first compound 15.81 µM): 0.401 | relative viability (NCI-H1944; first compound 50 µM): 0.491 | relative viability (NCI-H1944; first compound 158.11 µM): 0.288 | relative viability (NCI-H1944; first compound 500 µM): 0.383 | relative viability (HCC-827; first compound 5 µM): 0.558 | relative viability (HCC-827; first compound 15.81 µM): 0.602 | relative viability (HCC-827; first compound 50 µM): 0.691 | relative viability (HCC-827; first compound 158.11 µM): 0.691 | relative viability (HCC-827; first compound 500 µM): 0.538 | relative viability (NCI-H1650; first compound 5 µM): 0.728 | relative viability (NCI-H1650; first compound 15.81 µM): 0.791 | relative viability (NCI-H1650; first compound 50 µM): 0.749 | relative viability (NCI-H1650; first compound 158.11 µM): 0.416 | relative viability (NCI-H1650; first compound 500 µM): 0.0224 | relative viability (HARA; first compound 5 µM): 0.509 | relative viability (HARA; first compound 15.81 µM): 0.813 | relative viability (HARA; first compound 50 µM): 0.772 | relative viability (HARA; first compound 158.11 µM): 0.25 | relative viability (HARA; first compound 500 µM): 0.0476 | relative viability (SK-LU-1; first compound 5 µM): 0.416 | relative viability (SK-LU-1; first compound 15.81 µM): 0.392 | relative viability (SK-LU-1; first compound 50 µM): 0.427 | relative viability (SK-LU-1; first compound 158.11 µM): 0.352 | relative viability (SK-LU-1; first compound 500 µM): 0.238 | relative viability (BEN; first compound 5 µM): 1.09 | relative viability (BEN; first compound 15.81 µM): 0.853 | relative viability (BEN; first compound 50 µM): 0.909 | relative viability (BEN; first compound 158.11 µM): 0.786 | relative viability (BEN; first compound 500 µM): 0.931 | relative viability (LXF-289; first compound 5 µM): 0.988 | relative viability (LXF-289; first compound 15.81 µM): 1 | relative viability (LXF-289; first compound 50 µM): 1 | relative viability (LXF-289; first compound 158.11 µM): 0.692 | relative viability (LXF-289; first compound 500 µM): 0.8 | relative viability (NCI-H1975; first compound 5 µM): 0.745 | relative viability (NCI-H1975; first compound 15.81 µM): 0.758 | relative viability (NCI-H1975; first compound 50 µM): 0.85 | relative viability (NCI-H1975; first compound 158.11 µM): 0.563 | relative viability (NCI-H1975; first compound 500 µM): 0.099 | relative viability (NCI-H1734; first compound 5 µM): 0.584 | relative viability (NCI-H1734; first compound 15.81 µM): 0.596 | relative viability (NCI-H1734; first compound 50 µM): 0.516 | relative viability (NCI-H1734; first compound 158.11 µM): 0.373 | relative viability (NCI-H1734; first compound 500 µM): 0.173 | relative viability (NCI-H1755; first compound 5 µM): 0.91 | relative viability (NCI-H1755; first compound 15.81 µM): 0.894 | relative viability (NCI-H1755; first compound 50 µM): 0.954 | relative viability (NCI-H1755; first compound 158.11 µM): 0.751 | relative viability (NCI-H1755; first compound 500 µM): 0.805 | relative viability (RERF-LC-KJ; first compound 5 µM): 0.979 | relative viability (RERF-LC-KJ; first compound 15.81 µM): 0.83 | relative viability (RERF-LC-KJ; first compound 50 µM): 0.804 | relative viability (RERF-LC-KJ; first compound 158.11 µM): 0.273 | relative viability (RERF-LC-KJ; first compound 500 µM): 0.133
